Experimental data from patent US10357484B2, “Heterocyclic compound” (Takeda Pharmaceutical Company Limited, priority 2015, dated 2019).

Key:
Assay type in all cases: biochemical
HDAC1 enzyme = target: T1, HDAC1 enzyme (Homo sapiens, UniProt Q13547); assay: HDAC1 enzyme inhibitory assay (HDAC-Glo I/II Assay kit); settings: 1 μM test compound; wells without enzyme = 100% inhibition; read-out: HDAC1 inhibitory rate (%) (1 μM)
T1 construct: transducing full length HDAC1 and HDAC6 genes into Sf-9 insect cells; GST; purchased SignalChem; host or cells: Sf-9 insect cells
Description: (§1) HDAC1/6 Enzyme Inhibitory Assay
(§2) HDAC1 enzyme and HDAC6 enzyme each prepared by transducing full length HDAC1 and HDAC6 genes into Sf-9 insect cells and purifying by GST affinity column were purchased from SignalChem. Using these enzymes, HDAC1 and/or HDAC6 enzyme inhibitory activities of the compound of the present invention were evaluated. Enzymes were used after preserved at −70° C. HDAC1 or HDAC6 enzyme inhibitory activity of the compound of the present invention was measured using HDAC-Glo™ I/II Assay kit (Promega) according to the following experimental method. The test compound diluted with assay buffer (24 mM Tris-HCl (pH 7.5), 1 mM MgCl2, 0.35 mM KCl, 135 mM NaCl, 0.6 mM Glutathione, 0.01% Tween-20) was added to a 384-well plate by each 2 μL. Then, HDAC1 or HDAC6 enzyme solution diluted with assay buffer was added thereto by each 4 μL, and the plate was incubated at room temperature for 60 min. After incubated, HDAC substrate-Developer solution prepared according to Promega protocol attached to the assay kit was added to the 384-well plate by each 2 μL, and the enzyme reaction was started. After reacting at room temperature for 20 min, luminescence level was measured using plate reader Envision (PerkinElmer). The inhibitory activity of each compound was calculated as a relative activity value when luminescence level in wells without enzyme is considered as 100% inhibition.

HDAC9 enzyme = target: T2, HDAC9 enzyme (Homo sapiens, UniProt Q9UKV0); assay: HDAC9 enzyme inhibitory assay (HDAC-Glo class IIa); settings: 1 μM test compound; wells without enzyme = 100% inhibition; read-out: HDAC9 inhibitory rate (%) (1 μM)
T2 construct: transducing full length HDAC9 gene into Sf-9 insect cells; made in house; host or cells: Sf-9 insect cells
Description: HDAC9 Enzyme Inhibitory Assay
Enzyme was prepared by transducing full length HDAC9 gene into Sf-9 insect cells and purifying by Ni-NTA affinity column, and HDAC9 enzyme inhibitory activity was evaluated. Enzymes were used after preserved at −70° C. HDAC9 enzyme inhibitory activity of the test compound was measured using HDAC-Glo class IIa (Promega) according to the following experimental method. The test compound diluted with assay buffer (24 mM Tris-HCl (pH 7.5), 1 mM MgCl2, 0.35 mM KCl, 135 mM NaCl, 0.6 mM Glutathione, 0.01% Tween-20) was added to a 384-well plate by each 2 μL. Then, HDAC9 enzyme solution diluted with assay buffer was added thereto by each 2 μL, and the plate was incubated at room temperature for 60 min. After incubated, HDAC substrate-Developer solution prepared according to Promega protocol was added to the 384-well plate by each 4 μL, and the enzyme reaction was started. After reacting at room temperature for 20 min, luminescence level was measured using plate reader Envision (PerkinElmer). The inhibitory activity of each compound was calculated as a relative activity value when luminescence level in wells without enzyme is considered as 100% inhibition.

HDAC6 enzyme = target: T3, HDAC6 enzyme (Homo sapiens, UniProt Q9UBN7); assay: HDAC6 enzyme inhibitory assay (HDAC-Glo I/II Assay kit); settings: 1 μM test compound; wells without enzyme = 100% inhibition; read-out: HDAC6 inhibitory rate (%) (1 μM)
T3 construct: transducing full length HDAC1 and HDAC6 genes into Sf-9 insect cells; GST; purchased SignalChem; host or cells: Sf-9 insect cells
T3 sequence (Q9UBN7 1-1215): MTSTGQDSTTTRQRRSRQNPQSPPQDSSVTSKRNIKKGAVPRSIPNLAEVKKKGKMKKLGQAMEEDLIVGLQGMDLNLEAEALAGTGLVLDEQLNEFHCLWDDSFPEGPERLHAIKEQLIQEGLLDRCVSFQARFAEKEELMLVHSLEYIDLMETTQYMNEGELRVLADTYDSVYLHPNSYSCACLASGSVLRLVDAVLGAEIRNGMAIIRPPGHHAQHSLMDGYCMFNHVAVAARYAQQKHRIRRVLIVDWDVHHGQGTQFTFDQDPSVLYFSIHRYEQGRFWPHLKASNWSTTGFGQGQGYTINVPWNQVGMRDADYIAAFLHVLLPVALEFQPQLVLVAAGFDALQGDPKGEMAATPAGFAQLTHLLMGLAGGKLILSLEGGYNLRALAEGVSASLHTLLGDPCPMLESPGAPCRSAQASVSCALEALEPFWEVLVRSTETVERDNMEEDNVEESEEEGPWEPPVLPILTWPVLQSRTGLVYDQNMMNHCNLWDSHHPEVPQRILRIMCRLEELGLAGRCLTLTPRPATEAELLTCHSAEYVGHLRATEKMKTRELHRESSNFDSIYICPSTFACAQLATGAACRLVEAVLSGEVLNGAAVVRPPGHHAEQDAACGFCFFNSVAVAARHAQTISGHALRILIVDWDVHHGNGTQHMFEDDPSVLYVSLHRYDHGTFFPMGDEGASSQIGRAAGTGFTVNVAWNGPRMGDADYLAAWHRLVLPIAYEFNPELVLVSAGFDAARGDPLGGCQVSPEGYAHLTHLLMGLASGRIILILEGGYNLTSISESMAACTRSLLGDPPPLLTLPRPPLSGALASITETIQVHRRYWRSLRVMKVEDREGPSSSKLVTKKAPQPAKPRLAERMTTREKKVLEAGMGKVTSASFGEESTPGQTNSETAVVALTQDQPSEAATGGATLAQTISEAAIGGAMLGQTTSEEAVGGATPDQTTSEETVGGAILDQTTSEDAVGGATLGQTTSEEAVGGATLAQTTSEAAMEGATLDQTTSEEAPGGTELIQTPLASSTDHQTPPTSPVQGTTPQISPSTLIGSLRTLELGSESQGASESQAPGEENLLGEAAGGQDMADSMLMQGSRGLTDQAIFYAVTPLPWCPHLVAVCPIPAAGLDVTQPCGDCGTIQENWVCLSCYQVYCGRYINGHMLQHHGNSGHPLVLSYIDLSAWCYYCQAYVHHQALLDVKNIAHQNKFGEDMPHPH
Description: as §1, §2

T1 sequence (Q13547 whole entry): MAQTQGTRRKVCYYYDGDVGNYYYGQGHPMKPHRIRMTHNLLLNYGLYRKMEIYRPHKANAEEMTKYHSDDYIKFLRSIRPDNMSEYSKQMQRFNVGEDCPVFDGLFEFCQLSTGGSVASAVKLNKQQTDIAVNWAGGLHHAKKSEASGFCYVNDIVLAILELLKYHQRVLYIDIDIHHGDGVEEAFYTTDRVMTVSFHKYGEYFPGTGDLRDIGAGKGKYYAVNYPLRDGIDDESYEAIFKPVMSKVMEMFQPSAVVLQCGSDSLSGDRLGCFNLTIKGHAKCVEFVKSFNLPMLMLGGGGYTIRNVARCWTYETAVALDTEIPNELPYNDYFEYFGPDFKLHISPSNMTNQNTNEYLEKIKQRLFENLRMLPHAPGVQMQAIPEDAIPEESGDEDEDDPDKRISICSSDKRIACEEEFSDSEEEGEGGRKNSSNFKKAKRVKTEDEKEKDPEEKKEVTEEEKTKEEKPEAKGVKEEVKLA
T2 sequence (Q9UKV0 whole entry, species assumed): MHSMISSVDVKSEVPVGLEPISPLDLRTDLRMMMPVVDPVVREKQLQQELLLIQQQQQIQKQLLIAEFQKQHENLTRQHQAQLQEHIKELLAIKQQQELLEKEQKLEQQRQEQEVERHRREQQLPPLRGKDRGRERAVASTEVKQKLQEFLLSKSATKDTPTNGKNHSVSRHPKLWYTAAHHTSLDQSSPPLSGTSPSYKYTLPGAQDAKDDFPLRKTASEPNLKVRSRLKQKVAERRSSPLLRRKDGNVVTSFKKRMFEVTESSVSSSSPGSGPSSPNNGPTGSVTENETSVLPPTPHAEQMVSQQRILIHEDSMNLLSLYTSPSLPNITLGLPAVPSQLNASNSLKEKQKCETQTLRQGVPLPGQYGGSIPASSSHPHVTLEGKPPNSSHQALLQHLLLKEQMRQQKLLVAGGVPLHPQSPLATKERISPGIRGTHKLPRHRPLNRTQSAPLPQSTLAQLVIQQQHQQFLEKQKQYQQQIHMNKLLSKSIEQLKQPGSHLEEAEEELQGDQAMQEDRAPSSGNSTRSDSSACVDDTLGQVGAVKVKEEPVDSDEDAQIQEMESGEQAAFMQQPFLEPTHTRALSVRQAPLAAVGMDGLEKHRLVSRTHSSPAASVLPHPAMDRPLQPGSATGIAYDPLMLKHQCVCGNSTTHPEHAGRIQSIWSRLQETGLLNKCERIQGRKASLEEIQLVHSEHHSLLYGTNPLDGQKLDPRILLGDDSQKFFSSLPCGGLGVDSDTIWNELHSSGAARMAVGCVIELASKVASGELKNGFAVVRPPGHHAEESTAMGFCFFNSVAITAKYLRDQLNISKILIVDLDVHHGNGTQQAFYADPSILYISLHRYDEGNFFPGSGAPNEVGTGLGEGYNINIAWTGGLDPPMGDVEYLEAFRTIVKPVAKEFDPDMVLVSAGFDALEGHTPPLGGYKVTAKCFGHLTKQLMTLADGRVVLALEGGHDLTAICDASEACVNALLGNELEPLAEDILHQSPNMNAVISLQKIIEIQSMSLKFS

Row | inhibition at 1 µM (HDAC1 enzyme) | inhibition at 1 µM (HDAC9 enzyme) | inhibition at 1 µM (HDAC6 enzyme) | Compound
1 | 6% | 61% | 97% | CN(c1ncccc1CN1Cc2ccc(-c3noc(C(F)(F)F)n3)cc2C1=O)S(C)(=O)=O [Example 35, N-methyl-N-(3-((1-oxo-6-(5-(trifluoromethyl)-1,2,4-oxadiazol-3-yl)-1,3-dihydro-2H-isoindol-2-yl)methyl)pyridin-2-yl)methanesulfonamide]
2 | 55% | 90% | 99% | C[C@H](c1ccccc1)N1Cc2ncc(-c3noc(C(F)(F)F)n3)cc2C1=O [Example 39, 6-((1R)-1-phenylethyl)-3-(5-(trifluoromethyl)-1,2,4-oxadiazol-3-yl)-6,7-dihydro-5H-pyrrolo[3,4-b]pyridin-5-one]
3 | 4% | 5% | 68% | O=C1c2cc(-c3noc(C(F)(F)F)n3)ccc2CN1Cc1ccccc1Oc1ccccc1 [Example 11, 2-(2-phenoxybenzyl)-6-(5-(trifluoromethyl)-1,2,4-oxadiazol-3-yl)isoindolin-1-one]
4 | 19% | 87% | 99% | C[C@@H](c1ccccc1)N1Cc2ccc(-c3noc(C(F)(F)F)n3)cc2C1=O [Example 8, 2-((1S)-1-phenylethyl)-6-(5-(trifluoromethyl)-1,2,4-oxadiazol-3-yl)isoindolin-1-one]
5 | 30% | 83% | 94% | CS(=O)(=O)c1ccc(CN2Cc3ccc(-c4noc(C(F)(F)F)n4)cc3C2=O)cc1 [Example 30, 2-(4-(methylsulfonyl)benzyl)-6-(5-(trifluoromethyl)-1,2,4-oxadiazol-3-yl)isoindolin-1-one]
6 | 21% | 76% | 96% | O=C1c2cc(-c3noc(C(F)(F)F)n3)ccc2CN1Cc1c(F)cccc1F [Example 27, 2-(2,6-difluorobenzyl)-6-(5-(trifluoromethyl)-1,2,4-oxadiazol-3-yl)isoindolin-1-one]
7 | 23% | 76% | 96% | COc1ccccc1CN1Cc2ccc(-c3noc(C(F)(F)F)n3)cc2C1=O [Example 12, 2-(2-methoxybenzyl)-6-(5-(trifluoromethyl)-1,2,4-oxadiazol-3-yl)isoindolin-1-one]
8 | 36% | 89% | 98% | CC(C)(c1ccccc1)N1Cc2ncc(-c3noc(C(F)(F)F)n3)cc2C1=O [Example 3, 6-(2-phenylpropan-2-yl)-3-(5-(trifluoromethyl)-1,2,4-oxadiazol-3-yl)-6,7-dihydro-5H-pyrrolo[3,4-b]pyridin-5-one]
9 | 4% | 28% | 99% | C[C@H](c1cccc2ccccc12)N1Cc2ccc(-c3noc(C(F)(F)F)n3)cc2C1=O [Example 23, 2-((1R)-1-(1-naphthyl)ethyl)-6-(5-(trifluoromethyl)-1,2,4-oxadiazol-3-yl)isoindolin-1-one]
10 | 24% | 82% | 102% | O=C1c2cc(-c3noc(C(F)(F)F)n3)ccc2CN1Cc1ccccc1 [Example 6, 2-benzyl-6-(5-(trifluoromethyl)-1,2,4-oxadiazol-3-yl)isoindolin-1-one]
11 | 16% | 66% | 95% | COc1cc(F)ccc1[C@H](C)N1Cc2ccc(-c3noc(C(F)(F)F)n3)cc2C1=O [Example 20, 2-((S)-1-(4-fluoro-2-methoxyphenyl)ethyl)-6-(5-(trifluoromethyl)-1,2,4-oxadiazol-yl)isoindolin-1-one]
12 | 17% | 78% | 95% | C[C@H](c1ccccc1)N1Cc2ccc(-c3noc(C(F)(F)F)n3)cc2C1=O [Example 7, 2-((1R)-1-phenylethyl)-6-(5-(trifluoromethyl)-1,2,4-oxadiazol-3-yl)isoindolin-1-one]
13 | 43% | 93% | 97% | CC(c1cccnc1)N1Cc2ncc(-c3noc(C(F)(F)F)n3)cc2C1=O (stereo not drawn) [Example 5, 6-(1-(pyridin-3-yl)ethyl)-3-(5-(trifluoromethyl)-1,2,4-oxadiazol-3-yl)-6,7-dihydro-5H-pyrrolo[3,4-b]pyridin-5-one]
14 | 57% | 92% | 100% | CC(c1ccccc1)N1Cc2ncc(-c3noc(C(F)(F)F)n3)cc2C1=O (stereo not drawn) [Example 2, 6-(1-phenylethyl)-3-(5-(trifluoromethyl)-1,2,4-oxadiazol-3-yl)-6,7-dihydro-5H-pyrrolo[3,4-b]pyridin-5-one]
15 | 20% | 85% | 95% | C[C@@H](c1cccc(F)c1)N1Cc2ccc(-c3noc(C(F)(F)F)n3)cc2C1=O [Example 16, 2-((1S)-1-(3-fluorophenyl)ethyl)-6-(5-(trifluoromethyl)-1,2,4-oxadiazol-3-yl)isoindolin-1-one]
16 | 20% | 84% | 96% | Cc1csc(CN2Cc3ccc(-c4noc(C(F)(F)F)n4)cc3C2=O)n1 [Example 37, 2-((4-methyl-1,3-thiazol-2-yl)methyl)-6-(5-(trifluoromethyl)-1,2,4-oxadiazol-3-yl)isoindolin-1-one]
17 | 43% | 93% | 93% | O=C1c2cc(-c3noc(C(F)(F)F)n3)cnc2CN1Cc1cccnc1 [Example 4, 6-(pyridin-3-ylmethyl)-3-(5-(trifluoromethyl)-1,2,4-oxadiazol-3-yl)-6,7-dihydro-5H-pyrrolo[3,4-b]pyridin-5-one]
18 | 23% | 74% | 94% | N#Cc1ccc(CN2Cc3ccc(-c4noc(C(F)(F)F)n4)cc3C2=O)cc1 [Example 29, 4-((1-oxo-6-(5-(trifluoromethyl)-1,2,4-oxadiazol-3-yl)-1,3-dihydro-2H-isoindol-2-yl)methyl)benzonitrile]
